{"source": "patent US11612604B2", "about": "“Methods of treating cancer with PLK4 inhibitors” (LUDWIG INSTITUTE FOR CANCER RESEARCH LTD, priority 2017, dated 2023)", "key": {"[1]": {"tested_on": "neuroblastoma cell lines (SH-SY5Y, CHP134, IMR32, CHP212, SK-N-SH, SK-N-F1)", "assay": "Proliferation (12-day passaging) assay, neuroblastoma cell lines", "type": "cell-based", "conditions": "150 nM centrinone, 12 days, all 6 neuroblastoma cell lines", "procedure": "(§1) All 6 of the neuroblastoma cell lines grew robustly in the presence of DMSO in 12-day passaging assays.\n(§2) Plated cell numbers were adjusted to the cell line characteristics (doubling time and cell size). At 96-hour intervals, plates were harvested, counted and re-plated at 25,000-150,000 cells/plate. Cell counting was performed using a TC20 automated cell counter (Bio-Rad)."}, "[2]": {"tested_on": "control cell lines (HepG2, BT-12, BT-16, SK-ES-1, A673)", "assay": "Proliferation (12-day passaging) assay, control cell lines", "type": "cell-based", "conditions": "150 nM centrinone, 12 days, five control cell lines", "procedure": "as §1, §2"}, "[3]": {"tested_on": "CHP134 cells harboring the G95L mutant PLK4", "assay": "Proliferation (passaging) assay, CHP134 cells with G95L mutant PLK4", "type": "cell-based", "conditions": "150 nM centrinone", "procedure": "as §1\n(§3) Cell lines: Cells were maintained in ATCC-recommended complete growth media with 100 U/mL penicillin and 100 μg/mL streptomycin at 37° C. and 5% CO2. The RPE-1 TRIM37Δ knockout cell line was previously described (Meitinger et al., 2016). The CHP134 and HCT116 TRIM37Δ knockout cell lines were generated by transfection and nucleofection, respectively, of preassembled RNPs using a TRIM37 specific gRNA ([…]). The CHP134 G95L cell line was generated as previously described (Wong et al., 2015). For generation of H2B-mRFP expressing cell lines, cells were infected with a H2B-mRFP expressing lentiviral construct (Meitinger et al., 2016). Populations of each cell line expressing H2B-mRFP were enriched by FACS. To knock down TP53 (p53), cells were infected with a lentivirus containing sh-p53 made using the plasmid shp53 pLKO.1 puro (Godar et al., Cell. 134:62-73 (2008)). Positive selection of sh-p53 expressing cells was performed 2 days after infection with 10 μg/ml puromycin.\nas §2"}, "[4]": {"tested_on": "breast cancer cell lines (BT474, MCF7, MDA-MB-231)", "assay": "Proliferation (passaging) assay, breast cancer cell lines", "type": "cell-based", "conditions": "150 nM centrinone, BT474 and MCF7 (TRIM37 locus amplified)", "procedure": "Sensitivity to centrosome removal correlated with TRIM37 copy number in breast cancer as well. FIG. 3A is a graph plotting TRIM37 copy number versus expression level for breast cancer cell lines (data from the CCLE database; (Barretina et al., 2012)).\nas §2"}, "[5]": {"tested_on": "caspase-3/7 activity in 'Sensitive' neuroblastoma and 'Not Sensitive' (RPE1, BT-12, BT-16) cell lines", "assay": "Caspase activation assay", "type": "cell-based", "conditions": "150 nM centrinone, four cell cycle durations"}, "[6]": {"tested_on": "RPE1, BT-12, BT-16, CHP212, CHP134 and SK-N-F1 cells", "assay": "Assessing mitotic phenotypes and mitotic duration by live cell imaging", "type": "cell-based", "conditions": "for rates of anaphase failure and/or cell death during mitosis: three cell cycles in 150 nM centrinone", "procedure": "To examine the effects of centrosome removal, progression through mitosis after centrosome depletion was analyzed in three control cell lines with low TRIM37 levels (RPE1, BT-12 and BT-16), and in the three cell lines with the highest TRIM37 levels (CHP212, CHP134 and SK-N-F1). All of the tested cell lines, with the exception of SK-N-F1, were p53+.\nFor cells that completed mitosis, the inventors measured mitotic duration to determine if they would be likely to die due to tripping the mitotic duration sensor. […] The mean duration of mitosis in control SK-N-F1 cells, a p53− neuroblastoma cell line, was longer (104.7 minutes).\nAssessing mitotic phenotypes: First, the cell cycle duration of the indicated cell lines was determined for each cell line by imaging cells expressing H2B-mRFP for 48-72 hours. The mean time from the beginning the first mitosis (nuclear envelope breakdown) until the beginning of the second mitosis in each daughter cell was the cell line specific cell cycle duration. […] Cells were seeded into 96-well polystyrene plates at 10,000 cells/well, 14-16 hours before imaging. Images were acquired on a CQ1 spinning disk confocal systems (Yokogawa Electric Corporation) with an Olympus UPLSAPO40 X 40×0.95 objective and 2560×2160 sCMOS camera (Andor) at 37° C. and 5% CO2 at 2×2 binning. Image acquisition and data analysis were performed using CellVoyager software and ImageJ, respectively. 12-24 fields/well were imaged. 5×2 μm z-sections in RFP (25% power, 150 ms) channels were captured in each field at 4-minute intervals for 24 hours. Mitotic duration was measured as the interval between nuclear envelope breakdown and chromosome decondensation. Mitotic phenotypes were categorized into ‘bipolar’, ‘multipolar’, ‘cell death during mitosis’ and ‘anaphase failure’."}, "[7]": {"tested_on": "CHP134 cells and CHP134 clones with varying TRIM37 levels", "assay": "ATPlite cellular proliferation assay in CHP134 clones", "type": "cell-based", "conditions": "5 days in 125 nM centrinone, WT CHP134 cells", "procedure": "After CRISPR targeting, CHP134 clones with varying TRIM37 copy numbers were isolated and the levels of TRIM37 protein were measured by quantitative western blotting. Alpha-tubulin was used as a blotting control. Clones with TRIM37 levels between 12 and 64% of the levels in the WT cell line were isolated. […] Results are expressed as the percent of the value for the equivalent DMSO-treated control and are plotted versus measured TRIM37 protein level. […] Thus, for centrinone-treated CHP134 cells, mitotic success and cell viability both decreased as TRIM37 levels increased."}, "[8]": {"tested_on": "CHP134 cells in which TRIM37 was deleted, p53 was knocked down, or both", "assay": "Proliferation (12-day passaging) assay, CHP134 TRIM37 deletion / p53 knockdown cells", "type": "cell-based", "procedure": "as §3, §2"}, "[9]": {"tested_on": "RPE1 cells and primary cell cultures", "conditions": "cited from earlier work"}}, "data": [{"smiles": "COc1c(Nc2cc(C)[nH]n2)nc(Sc2ccc(S(=O)(=O)Cc3cccc([N+](=O)[O-])c3F)cc2F)nc1N1CCOCC1", "note": "[centrinone]", "values": [{"measurement": "cell number in passaging assay", "setting": "[1]", "value": "cell number rapidly declined to zero"}, {"measurement": "proliferation in passaging assay", "setting": "[2]", "value": "continued to proliferate"}, {"measurement": "proliferation in passaging assay", "setting": "[3]", "value": "proliferated in centrinone at a rate comparable to non-mutant cells in DMSO"}, {"measurement": "sensitivity to centrosome removal in passaging assay", "setting": "[4]", "value": "highly sensitive"}, {"measurement": "caspase activity", "setting": "[5]; 'Not Sensitive' cell lines (RPE1, BT-12, BT-16)", "value": "relatively low levels"}, {"measurement": "caspase activity", "setting": "[5]; three 'Sensitive' neuroblastoma cell lines", "value": "high levels of caspase activity"}, {"measurement": "mean duration of mitosis after centrosome removal", "setting": "[6]; CHP134", "value": 257, "unit": "min"}, {"measurement": "cells that fail to segregate their chromosomes", "setting": "[6]; CHP134, absence of centrioles (FIG. 5A)", "value": "about 36%"}, {"measurement": "mean duration of mitosis after centrosome removal", "setting": "[6]; CHP212", "value": 221, "unit": "min"}, {"measurement": "mitotic duration", "setting": "[6]; control RPE1 cells and RPE1 TRIM37Δ reconstituted with wild-type TRIM37, after centrinone", "value": "substantial increase in mitotic duration"}, {"measurement": "rates of anaphase failure and/or cell death during mitosis", "setting": "[6]; cell lines with high TRIM37 levels (CHP212, CHP134, SK-N-F1)", "value": "31-74%"}, {"measurement": "rates of anaphase failure and/or cell death during mitosis", "setting": "[6]; three cell lines with low TRIM37 levels (RPE1, BT-12, BT-16)", "value": "3-14%"}, {"measurement": "cellular proliferation (ATPlite), percent of DMSO-treated control", "setting": "[7]", "value": "loss in proliferation comparable to that of the two highest mutant clones"}, {"measurement": "proliferation in passaging assay", "setting": "[8]; centrinone, CHP134 with TRIM37 deleted and p53 knocked down", "value": "robust proliferation in centrinone"}, {"measurement": "proliferation in 12-day passaging assay", "setting": "[8]; centrinone, CHP134 with shRNA-mediated knockdown of p53", "value": "allowed CHP134 cells to proliferate"}, {"measurement": "proliferation in 12-day passaging assay", "setting": "[8]; centrinone-treated CHP134, TRIM37 deletion", "value": "enabled their proliferation"}, {"measurement": "response to centrinone-induced centrosome loss", "setting": "[9]; RPE1 cells and 3 primary cell cultures with intact p53 pathway (Wong et al.)", "value": "stabilize p53 and arrest in G1"}, {"measurement": "effect on centriole duplication", "setting": "[9]; centrinone treatment (Wong et al.)", "value": "blocks centriole duplication"}]}]}
